Experimental data reported in ChEMBL document CHEMBL1122330, “Studies on v-triazoles. 7. Antiallergic 9-oxo-1H,9H-benzopyrano[2,3-d]-v-triazoles” (1983).

Legend:
Format in all cases: functional
Rattus norvegicus [1] = assay: Inhibition of passive cutaneous anaphylaxis (PCA) in Charles Rivers Sprague-Dawley rat after intravenous administration; value range […]
Rattus norvegicus [2] = assay: Inhibition of passive cutaneous anaphylaxis (PCA) in Charles Rivers Sprague-Dawley rat after intravenous administration
Rattus norvegicus [3] = assay: Inhibition of passive cutaneous anaphylaxis (PCA) in Charles Rivers Sprague-Dawley rat after intravenous administration; value range from 0.3 to 0.5
Rattus norvegicus [4] = assay: Inhibition of passive cutaneous anaphylaxis (PCA) in Charles Rivers Sprague-Dawley rat after intravenous administration; value range from 1.6 to 3.0
Rattus norvegicus [5] = assay: Inhibition of passive cutaneous anaphylaxis (PCA) in Charles Rivers Sprague-Dawley rat after intravenous administration; value range from 4.1 to 5.8
Rattus norvegicus [6] = assay: Inhibition of passive cutaneous anaphylaxis (PCA) in Charles Rivers Sprague-Dawley rat after intravenous administration; value range from 0.1 to 0.4
Rattus norvegicus [7] = assay: Inhibition of passive cutaneous anaphylaxis (PCA) in Charles Rivers Sprague-Dawley rat after intravenous administration; value range from 0.8 to 1.4
Rattus norvegicus [8] = assay: Inhibition of passive cutaneous anaphylaxis (PCA) in Charles Rivers Sprague-Dawley rat after intravenous administration; value range from 0.03 to 0.6
Rattus norvegicus [9] = assay: Inhibition of passive cutaneous anaphylaxis (PCA) in Charles Rivers Sprague-Dawley rat after intravenous administration; value range from 0.4 to 0.9
Rattus norvegicus [10] = assay: Inhibition of passive cutaneous anaphylaxis (PCA) in Charles Rivers Sprague-Dawley rat after intravenous administration; value range from 1.4 to 2.4
Rattus norvegicus [11] = assay: Inhibition of passive cutaneous anaphylaxis (PCA) in Charles Rivers Sprague-Dawley rat after intravenous administration; value range from 0.05 to 0.6
Rattus norvegicus [12] = assay: Inhibition of passive cutaneous anaphylaxis (PCA) in Charles Rivers Sprague-Dawley rat after intravenous administration; value range from 0.8 to 1.6
Rattus norvegicus [13] = assay: Inhibition of passive cutaneous anaphylaxis (PCA) in Charles Rivers Sprague-Dawley rat after intravenous administration; value range from 0.2 to 0.3
Rattus norvegicus [14] = assay: Inhibition of passive cutaneous anaphylaxis (PCA) in Charles Rivers Sprague-Dawley rat after intravenous administration; value range from 1.8 to 2.7
Rattus norvegicus [15] = assay: Inhibition of passive cutaneous anaphylaxis (PCA) in Charles Rivers Sprague-Dawley rat after intravenous administration; value range from 1.4 to 2.1
Rattus norvegicus [16] = assay: Inhibition of passive cutaneous anaphylaxis (PCA) in Charles Rivers Sprague-Dawley rat after intravenous administration; value range from 1.1 to 1.8
Rattus norvegicus [17] = assay: Inhibition of passive cutaneous anaphylaxis (PCA) in Charles Rivers Sprague-Dawley rat after intravenous administration; value range from 0.8 to 1.5
Rattus norvegicus [18] = assay: Inhibition of passive cutaneous anaphylaxis (PCA) in Charles Rivers Sprague-Dawley rat after intravenous administration; value range from 6.2 to 7.8
Rattus norvegicus [19] = assay: Inhibition of passive cutaneous anaphylaxis (PCA) in Charles Rivers Sprague-Dawley rat after intravenous administration; value range from 1.9 to 22.5
Rattus norvegicus [20] = assay: Inhibition of passive cutaneous anaphylaxis (PCA) in Charles Rivers Sprague-Dawley rat after intravenous administration; value range from 0.3 to 0.8
Rattus norvegicus [21] = assay: Inhibition of passive cutaneous anaphylaxis (PCA) in Charles Rivers Sprague-Dawley rat after intravenous administration; value range from 1.5 to 2.9

## COc1ccc2oc3nnnc-3c(O)c2c1
Rattus norvegicus [1]
  ED50: 1.7 mg/kg

## CCCc1ccc(OC)c2c(O)c3nnnc-3oc12
Rattus norvegicus [2]
  ED50: > 10 mg/kg

## COc1ccc2c(O)c3nnnc-3oc2c1C
Rattus norvegicus [3]
  ED50: 0.4 mg/kg

## Oc1c2nnnc-2oc2ccc3c(c12)CCCC3
Rattus norvegicus [4]
  ED50: 2.1 mg/kg

## Cc1ccc2oc3nnnc-3c(O)c2c1
Rattus norvegicus [5]
  ED50: 5 mg/kg

## Cc1c(OS(C)(=O)=O)ccc2c(O)c3nnnc-3oc12
Rattus norvegicus [6]
  ED50: 0.2 mg/kg

## CCCc1c(O)ccc2c(O)c3nnnc-3oc12
Rattus norvegicus [7]
  ED50: 1.1 mg/kg

## COc1ccc2c(O)c3nnnc-3oc2c1
Rattus norvegicus [8]
  ED50: 0.3 mg/kg

## Cc1ccc2oc3nnnc-3c(O)c2c1C
Rattus norvegicus [9]
  ED50: 0.6 mg/kg

## Oc1ccc2c(O)c3nnnc-3oc2c1
Rattus norvegicus [10]
  ED50: 1.8 mg/kg

## Cc1ccc2c(O)c3nnnc-3oc2c1C
Rattus norvegicus [11]
  ED50: 0.3 mg/kg

## Cc1cc(C)c2c(O)c3nnnc-3oc2c1C
Rattus norvegicus [12]
  ED50: 1.2 mg/kg

## CS(=O)(=O)Oc1ccc2c(O)c3nnnc-3oc2c1
Rattus norvegicus [13]
  ED50: 0.2 mg/kg

## Cc1c(O)ccc2c(O)c3nnnc-3oc12
Rattus norvegicus [14]
  ED50: 2.2 mg/kg

## Oc1cccc2oc3nnnc-3c(O)c12
Rattus norvegicus [15]
  ED50: 1.7 mg/kg

## Oc1c2nnnc-2oc2ccccc12
Rattus norvegicus [16]
  ED50: 1.4 mg/kg

## CCCc1c(OC)ccc2c(O)c3nnnc-3oc12
Rattus norvegicus [17]
  ED50: 1 mg/kg

## CCCc1ccc(O)c2c(O)c3nnnc-3oc12
Rattus norvegicus [18]
  ED50: 7 mg/kg

## Cc1cc2oc3nnnc-3c(O)c2cc1C
Rattus norvegicus [3]
  ED50: 0.4 mg/kg

## COc1cccc2oc3nnnc-3c(O)c12
Rattus norvegicus [19]
  ED50: 3.5 mg/kg

## Oc1c2nnnc-2oc2cc3c(cc12)CCCC3
Rattus norvegicus [20]
  ED50: 0.6 mg/kg

## O=C([O-])c1cc(=O)c2c(OCC(O)COc3cccc4oc(C(=O)[O-])cc(=O)c34)cccc2o1.[Na+].[Na+] [CROMOLYN SODIUM]
Rattus norvegicus [21]
  ED50: 2 mg/kg
